Several values for one entry are separate records, joined by “and”; a condition that tells them apart may be missing. Equal entries are not always repeated. After the bases stand the sugars from the 5' end (letter, count) and the backbone: PS all phosphorothioate, else s phosphorothioate and o phosphodiester by linkage. Methylation of C is not given here. [mop] = methoxypropylphosphonate linkage; e = 2'-O-(2-methoxyethyl) (MOE); k = constrained ethyl (cEt); d = 2'-deoxy (DNA)

These results are taken from the OligoGym collection.

For the series, the target named is IRF5. The following applies: ASO.

Take “ATCACCACTGTGTACC (sugars kdddddddddkekeke, PS)”: the target mRNA inhibition (KARPAS-229, 4 µM) turned out to be 0%.
Take TCTGATATGATACCTA (sugars k3 d10 k3, PS): the target mRNA inhibition was 8% (A-431, 0.00412 µM); 27% (A-431, 0.01225 µM); 54% (A-431, 0.03704 µM); 78% (A-431, 0.11111 µM); 89% (A-431, 0.33333 µM); 92% (A-431, 1 µM). In addition, the target mRNA inhibition (KARPAS-229, 0.44444 µM) worked out at 59%; the target mRNA inhibition (KARPAS-229, 1.33333 µM) came to 68%; the target mRNA inhibition (KARPAS-229, 4 µM) was 63% and 78%; the target mRNA inhibition (KARPAS-229, 12 µM) is 83%.
Regarding “TGTCTAGTGTCATGGA (sugars kkkddddddddkekek, PS)”, the target mRNA inhibition (KARPAS-229, 4 µM) is 57%.
On to “GGTGTATTTCCCTGTC (sugars kkkddddddddkdkdk, PS)”, for which the target mRNA inhibition (KARPAS-229, 4 µM) came to 1%.
Take “GCTTGGTCTTGACCTC (sugars kekdddddddddeekk, PS)”: the target mRNA inhibition (KARPAS-229, 4 µM) came to 46%.
With “GCTGTCACATCTCCAC (sugars kkkdddddddddkeke, PS)”, the target mRNA inhibition (KARPAS-229, 4 µM) was found to be 3%.
The same measure, in the same setting: the result for “GGAGTGAGACGAGCAA (sugars k3 d9 k3 e1, PS)” reads 33%; that for “TTCTTGGACTCTCAAG (sugars kddddddddddkekek, PS)”, 0%; that for “CCACTGTGTACCCCAT (sugars kkddddddddddkeke, PS)”, 19%.
Same read-out and setting: the result for ATCACCACTGTGTACC (sugars k3 d10 k3, PS) reads 11%; that for “AGATGGTGTTATCTCC (sugars k3 d9 k3 e1, PS)”, 0%; that for “CATTCTATGCCTTTTA (sugars kkddddddddkekekk, PS)”, 56%.
The same measure, in the same setting: then CACATCTCCACATCAG (sugars k3 d10 k3, PS), with 45%.
The sequence “CCCAATGCAACATCCA (sugars kkdddddddddkekek, PS)” came in with a target mRNA inhibition (KARPAS-229, 4 µM) of 0%.
Still for that read-out and setting: the result for “CATTCCATATACACAC (sugars kkkddddddddkekek, PS)” reads 32%.
“CCCAATGCAACATCCA (sugars kdddddddddkekeke, PS)” showed a target mRNA inhibition (KARPAS-229, 4 µM) of 0%.
On the same count and under the same terms, then “GTGAGTCTCAAACCAG (sugars kkkddddddddkekek, PS)”, with 0%; and “CAGGTTCTTGGACTCT (sugars kddddddddddkekek, PS)”, with 0%; and “TTGTCTAGTGTCATGG (sugars k3 d9 k3 e1, PS)”, with 20%.
As for “GGGCACAGCGCCAGGTT (sugars kddddddddddkekekd, PS)”, the target mRNA inhibition runs as follows: (KARPAS-229, 0.44444 µM) 23%; (KARPAS-229, 1.33333 µM) 40%; (KARPAS-229, 4 µM) 37% and 62%; (KARPAS-229, 12 µM) 87%.
In the case of CTAAACCATTCTATGC (sugars k3 d10 k3, PS), the target mRNA inhibition (KARPAS-229, 4 µM) amounted to 0%.
For the sequence “GGTTCTTGGACTCTCA (sugars kdddddddddkekeke, PS)”, the target mRNA inhibition (KARPAS-229, 4 µM) is 0%.
Still for that read-out and setting: then “CCACTGTGTACCCCAT (sugars k3 d9 k3 e1, PS)”, with 57%.
The same measure, in the same setting: then “GGTGTATTTCCCTGTC (sugars kddddddddddkekek, PS)”, with 0%; and “GCTTGGTCTTGACCTC (sugars k2 d9 e3 k2, PS)”, with 10%.
Still for that read-out and setting: the result for “CATTCCATATACACAC (sugars k2 d8 e4 k2, PS)” reads 21%.
For CTTCTGCAGGGAGTCA (sugars k3 d10 k3, PS), where the note is “KARPAS-229, 4 µM”, the target mRNA inhibition is 0%.
The same measure, in the same setting: then CCTCATGAGTAATAGG (sugars k3 d10 k3, PS), with 0%; and “ATGGTGTTATCTCCGT (sugars kkddddddddkekekk, PS)”, with 0%; and “CATCTCCACATCAGTC (sugars kddddddddddkekek, PS)”, with 25%.
On to “GCTGTCACATCTCCAC (sugars kkddddddddkekekk, PS)”, for which, for the setting “KARPAS-229, 4 µM”, the target mRNA inhibition was 29%.
As for “CAGGTTCTTGGACTCT (sugars kekdddddddddeekk, PS)”, the target mRNA inhibition is, setting by setting: (KARPAS-229, 0.44444 µM) 34%; (KARPAS-229, 1.33333 µM) 48%; (KARPAS-229, 4 µM) 48% and 62%; (KARPAS-229, 12 µM) 74%.
Where the note is “KARPAS-229, 4 µM”, “GCTGTCACATCTCCAC (sugars kddddddddddkekek, PS)” displayed a target mRNA inhibition of 17%.
As to “TGAGTCTCAAACCAGG (sugars k2 d9 e3 k2, PS)”, the target mRNA inhibition (KARPAS-229, 4 µM) stood at 0%.
Under “KARPAS-229, 4 µM”, “CCTTCTGCAGGGAGTC (sugars kkdddddddddkekek, PS)” yielded a target mRNA inhibition of 0%.
Still for that read-out and setting: the result for “AGGAAGTGAGTCTCAA (sugars kkddddddddkekekk, PS)” reads 20%.
For “TATTTCTGCTCCAGGT (sugars kkddddddddddkeke, PS)”, the target mRNA inhibition is, setting by setting: (KARPAS-229, 0.44444 µM) 40%; (KARPAS-229, 1.33333 µM) 53%; (KARPAS-229, 4 µM) 49% and 71%; (KARPAS-229, 12 µM) 79%.
For the setting “KARPAS-229, 4 µM”, “GTCTTTGAGGTCTGGG (sugars kddddddddddkekek, PS)” showed a target mRNA inhibition of 0%.
For ACCATTCTATGCCTTT (sugars k3 d10 k3, PS), the target mRNA inhibition is 44% (KARPAS-229, 0.44444 µM); 60% (KARPAS-229, 1.33333 µM); 70% and 74% (KARPAS-229, 4 µM); 86% (KARPAS-229, 12 µM).
“CACATCTCCACATCAG (sugars kekdddddddddeekk, PS)” came in with a target mRNA inhibition (KARPAS-229, 4 µM) of 26%.
The same measure, in the same setting: the result for “TTATCTCCGTCCTGGC (sugars kkdddddddddkekek, PS)” reads 0%; that for “GTCTTTGAGGTCTGGG (sugars kdddddddddkekeke, PS)”, 33%.
Same read-out and setting: the result for CAGGTTCTTGGACTCT (sugars k3 d10 k3, PS) reads 0%.
In the case of “TATCTCCGTCCTGGCT (sugars kkddddddddkekekk, PS)”, under “KARPAS-229, 4 µM”, the target mRNA inhibition worked out at 6%.
Same read-out and setting: the result for “TTATCTCCGTCCTGGC (sugars kkddddddddkekekk, PS)” reads 0%; that for GCACTGACACAGGCGG (sugars k3 d10 k3, PS), 14% and 0%.
Still for that read-out and setting: the result for “ACTGACACAGGCGGAT (sugars k2 d8 e4 k2, PS)” reads 0%; that for “GGTCTGGCCCTTTTGG (sugars kekdddddddddeekk, PS)”, 13%.
Still for that read-out and setting: then “CCAATGCAACATCCAT (sugars kkddddddddddkeke, PS)”, with 0%.
Sequence “TATTTCTGCTCCAGGT (sugars kkdddddddddkdkdk, PS)” returned a target mRNA inhibition (KARPAS-229, 4 µM) of 27%.
Still for that read-out and setting: then “CTGTCACATCTCCACA (sugars k2 d9 e3 k2, PS)”, with 10%; and “ATGAGTCATGGGCTGA (sugars kkkdddddddddkeke, PS)”, with 9%; and “AAGGGCACAGCGCAGG (sugars kekdddddddddeekk, PS)”, with 0%.
On to “CCCAATGCAACATCCA (sugars kkkddddddddkekek, PS)”, for which, for the setting “KARPAS-229, 4 µM”, the target mRNA inhibition was 0%.
Still for that read-out and setting: then “GGAGTGAGACGAGCAA (sugars kkdddddddddkdkdk, PS)”, with 16%; and “ACCATTCTATGCCTTT (sugars kddddddddddkekek, PS)”, with 0%; and “ATCACCACTGTGTACC (sugars kkddddddddddkeke, PS)”, with 0%.
Still for that read-out and setting: then “GAGTCATGGGCTGAGG (sugars kdddddddddkekeke, PS)”, with 0%; and “TGCACTGACACAGGCG (sugars k2 d9 e3 k2, PS)”, with 18%; and “CAGGTTCTTGGACTCT (sugars kkkddddddddkdkdk, PS)”, with 0%.
For “TGTCTAGTGTCATGGA (sugars kkddkddddddeeekk, PS)”, the target mRNA inhibition came out at 0% (A-431, 0.00412 µM); 0% (A-431, 0.01225 µM); 9% (A-431, 0.03704 µM); 17% (A-431, 0.11111 µM); 13% (A-431, 0.33333 µM); 29% (A-431, 1 µM).
In the case of AATTTTGCATTCCATA (sugars k3 d10 k3, PS), the target mRNA inhibition (KARPAS-229, 4 µM) came to 41%.
As to GTTATCTCCGTCCTGG (sugars k3 d10 k3, PS), for the setting “KARPAS-229, 4 µM”, the target mRNA inhibition worked out at 31%.
In the case of “ACCACTGTGTACCCCA (sugars kkkddddddddkdkdk, PS)”, the target mRNA inhibition (KARPAS-229, 4 µM) worked out at 40%.
Still for that read-out and setting: then TACCCAATGCAACATC (sugars k3 d10 k3, PS), with 0%; and “GATGGTGTTATCTCCG (sugars k3 d9 k3 e1, PS)”, with 0%.
Still for that read-out and setting: then “TTCTTGGACTCTCAAG (sugars kdddddddddkekeke, PS)”, with 0%; and “CATTCCATATACACAC (sugars kkkdddddddddkeke, PS)”, with 28%.
Take “TTATTTCTGCTCCAGG (sugars kkkddddddddkdkdk, PS)”: the target mRNA inhibition runs as follows: (KARPAS-229, 0.44444 µM) 42%; (KARPAS-229, 1.33333 µM) 62%; (KARPAS-229, 4 µM) 57% and 67%; (KARPAS-229, 12 µM) 79%.
For the setting “KARPAS-229, 4 µM”, “CCAATTTTGCATTCCA (sugars kkdddddddddkekek, PS)” had a target mRNA inhibition of 11%.
“CGGTCTTTGAGGTCTG (sugars kkkdddddddddkeke, PS)” yielded a target mRNA inhibition (KARPAS-229, 4 µM) of 38%.
On the same count and under the same terms, the result for “TGTCTAGTGTCATGGA (sugars kkddddddddddkeke, PS)” reads 44%.
As to “TGTCTAGTGTCATGGA (sugars k2 d9 e3 k2, linkages s3 [mop]1 s11)”, the target mRNA inhibition is, setting by setting: (A-431, 0.00412 µM) 0%; (A-431, 0.01225 µM) 15%; (A-431, 0.03704 µM) 10%; (A-431, 0.11111 µM) 39%; (A-431, 0.33333 µM) 58%; (A-431, 1 µM) 75%.
On to “TGAGTCTCAAACCAGG (sugars kkddddddddddkeke, PS)”, for which the target mRNA inhibition (KARPAS-229, 4 µM) turned out to be 7%.
Under “KARPAS-229, 4 µM”, “CACTGACACAGGCGGA (sugars kkkddddddddkdkdk, PS)” yielded a target mRNA inhibition of 0%.
Sequence AGGGCACAGCGCAGGT (sugars k3 d10 k3, PS) displayed a target mRNA inhibition (KARPAS-229, 4 µM) of 2%.
